Activity calls are given as the source filed them. The rule behind the calls is not given here.
Assays:
[1] = tested on: Mycobacterium intracellulare; experiment: Antimicrobial activity against Mycobacterium intracellulare ATCC 23068 by Alamar blue method; format: functional, organism-based
Staphylococcus aureus [2] = experiment: Antimicrobial activity against Staphylococcus aureus ATCC 29213 by Alamar blue method; format: functional, organism-based
Staphylococcus aureus [3] = experiment: Antimicrobial activity against methicillin-resistant Staphylococcus aureus ATCC 33591 by Alamar blue method; format: functional, organism-based
Cryptococcus neoformans = experiment: Antimicrobial activity against Cryptococcus neoformans ATCC 90113 by Alamar blue method; format: functional, organism-based
Aspergillus fumigatus = experiment: Antimicrobial activity against Aspergillus fumigatus ATCC 204305 by Alamar blue method; format: functional, organism-based
Pichia kudriavzevii = experiment: Antimicrobial activity against Candida krusei ATCC 6258 by Alamar blue method; format: functional, organism-based
Nakaseomyces glabratus = experiment: Antimicrobial activity against Candida glabrata by Alamar blue method; format: functional, organism-based
Vero = experiment: Cytotoxicity against african green monkey Vero cells at 10 ug/ml after 48 hrs by Neutral Red dye assay; format: cell-based; details: chlorocebus sabaeus
Candida albicans = experiment: Antimicrobial activity against Candida albicans ATCC 90028 by Alamar blue method; format: functional, organism-based
[4] = Staphylococcus aureus, ATCC 29213
[5] = Staphylococcus aureus, ATCC 29213, read-out: IC50

SMILES	IC50 [1] [µg/mL]	MBC [1] [µg/mL]	MIC [1] [µg/mL]	IC50 (Staphylococcus aureus [3]) [µg/mL]	MBC (Staphylococcus aureus [3]) [µg/mL]	MIC (Staphylococcus aureus [3]) [µg/mL]	MFC (Cryptococcus neoformans) [µg/mL]	MIC (Cryptococcus neoformans) [µg/mL]	IC50 (Aspergillus fumigatus) [µg/mL]	MFC (Aspergillus fumigatus) [µg/mL]	MIC (Aspergillus fumigatus) [µg/mL]	IC50 (Pichia kudriavzevii) [µg/mL]	MFC (Pichia kudriavzevii) [µg/mL]	MIC (Pichia kudriavzevii) [µg/mL]	IC50 (Nakaseomyces glabratus) [µg/mL]	MFC (Nakaseomyces glabratus) [µg/mL]	MIC (Nakaseomyces glabratus) [µg/mL]	Activity (Vero)	IC50 (Candida albicans) [µg/mL]	MFC (Candida albicans) [µg/mL]	further results
FC(F)(F)c1cccc(CSc2cc3ccccc3[n+](CCCCCC3CCCCC3)c2)c1.[I-]	7.2	10	10	0.56	2.5	1.3	0.63	0.63	1.9	2.5	2.5	1.4	2.5	2.5	2.8	5	5	Non-toxic	1.2	2.5	MBC (Staphylococcus aureus [2]; [4]): 2.5 µg/mL; MIC (Staphylococcus aureus [2]; [4]): 0.63 µg/mL; IC50 (Staphylococcus aureus [2]; [5]): 0.4 µg/mL; IC50 (Cryptococcus neoformans): 0.28 µg/mL; MIC (Candida albicans): 2.5 µg/mL
Brc1ccc(CSc2cc3ccccc3[n+](CCCCCC3CCCCC3)c2)cc1.[I-]	6.1	10	10	0.4	1.3	0.63	0.63	0.63	2.4	5	5	0.49	0.63	0.63	1.6	5	5	Non-toxic	0.5	2.5	MBC (Staphylococcus aureus [2]; [4]): 1.3 µg/mL; MIC (Staphylococcus aureus [2]; [4]): 0.63 µg/mL; IC50 (Staphylococcus aureus [2]; [5]): 0.4 µg/mL; IC50 (Cryptococcus neoformans): 0.22 µg/mL; MIC (Candida albicans): 1.3 µg/mL
N#Cc1cccc(CSc2cc3ccccc3[n+](CCCCCC3CCCCC3)c2)c1.[I-]	4.8	10	5	0.72	5	1.3	5	2.5	8.6	20	20	1.1	2.5	2.5	4.7	10	10	Non-toxic	4.3	20	MBC (Staphylococcus aureus [2]; [4]): 2.5 µg/mL; MIC (Staphylococcus aureus [2]; [4]): 1.3 µg/mL; IC50 (Staphylococcus aureus [2]; [5]): 0.69 µg/mL; IC50 (Cryptococcus neoformans): 1.1 µg/mL; MIC (Candida albicans): 10 µg/mL
N#Cc1ccc(CSc2cc3ccccc3[n+](CCCCCC3CCCCC3)c2)cc1.[I-]	> 20	> 20	> 20	2.2	5	5	2.5	2.5	8.6	20	20	5.7	10	10	11	20	20	Non-toxic	2.5	10	MBC (Staphylococcus aureus [2]; [4]): 5 µg/mL; MIC (Staphylococcus aureus [2]; [4]): 5 µg/mL; IC50 (Staphylococcus aureus [2]; [5]): 1.8 µg/mL; IC50 (Cryptococcus neoformans): 0.81 µg/mL; MIC (Candida albicans): 5 µg/mL
Clc1cc(Cl)cc(CSc2cc3ccccc3[n+](CCCCCC3CCCCC3)c2)c1.[I-]	3.1	5	5	1.3	10	2.5	1.3	1.3	> 20	> 20	> 20	17	> 20	> 20	> 20	> 20	> 20	Non-toxic	2.8	5	IC50 (Staphylococcus aureus [2]): Not Active; MBC (Staphylococcus aureus [2]): inactive; MIC (Staphylococcus aureus [2]): inactive; IC50 (Cryptococcus neoformans): 0.63 µg/mL; MIC (Candida albicans): 5 µg/mL
N#Cc1ccccc1CSc1cc2ccccc2[n+](CCCCCC2CCCCC2)c1.[I-]	6.8	10	10	0.97	10	2.5	2.5	1.3	11	20	20	1.5	5	5	> 20	> 20	> 20	Non-toxic	1.6	10	MBC (Staphylococcus aureus [2]; [4]): 5 µg/mL; MIC (Staphylococcus aureus [2]; [4]): 1.3 µg/mL; IC50 (Staphylococcus aureus [2]; [5]): 0.68 µg/mL; IC50 (Cryptococcus neoformans): 0.5 µg/mL; MIC (Candida albicans): 5 µg/mL
Oc1ccc(CSc2cc3ccccc3[n+](CCCCCC3CCCCC3)c2)cc1.[I-]	2.2	5	2.5	0.34	5	0.63	10	10	16	20	20	0.56	1.3	1.3	7.9	20	20	Non-toxic	11	20	MBC (Staphylococcus aureus [2]; [4]): 2.5 µg/mL; MIC (Staphylococcus aureus [2]; [4]): 2.5 µg/mL; IC50 (Staphylococcus aureus [2]; [5]): 0.26 µg/mL; MIC (Candida albicans): 20 µg/mL
CC(C)(C)c1ccc(CSc2cc3ccccc3[n+](CCCCCC3CCCCC3)c2)cc1.[I-]	> 20	> 20	> 20	12	> 20	20	10	1.3	> 20	> 20	> 20	1.2	20	20	> 20	> 20	> 20	Non-toxic	20	> 20	MBC (Staphylococcus aureus [2]; [4]): > 20 µg/mL; MIC (Staphylococcus aureus [2]; [4]): > 20 µg/mL; IC50 (Staphylococcus aureus [2]; [5]): > 20 µg/mL; MIC (Candida albicans): > 20 µg/mL
Clc1ccc(CSc2cc3ccccc3[n+](CCCCCC3CCCCC3)c2)cc1Cl.[I-]	4.5	10	5	0.18	1.3	1.3	0.63	0.63	2.8	5	5	0.3	1.3	1.3	3	5	5	Non-toxic	1.1	2.5	MBC (Staphylococcus aureus [2]; [4]): 2.5 µg/mL; MIC (Staphylococcus aureus [2]; [4]): 2.5 µg/mL; IC50 (Staphylococcus aureus [2]; [5]): 0.5 µg/mL; IC50 (Cryptococcus neoformans): 0.45 µg/mL; MIC (Candida albicans): 2.5 µg/mL

Source: ChEMBL document CHEMBL3085759, “Structure-activity relationship (SAR) and preliminary mode of action studies of 3-substituted benzylthioquinolinium iodide as anti-opportunistic infection agents” (Eur J Med Chem, 2013)
